Among the data in ChEMBL document CHEMBL3044670, “Aromatic sulfonyl hydrazides and sulfonyl hydrazones: antimicrobial activity and physical properties” (2013) are zone of inhibition and MIC values, retold here.

A word on the MIC: it is the least concentration at which growth counts as inhibited.

What all share (format): functional
In assay [1] the test system is Escherichia coli. The experiment in a line: Antibacterial activity against Escherichia coli ATCC 25922 at 140 ug/disk after 18 to 24 hr by disk diffusion method. As to conditions: read-out: DIZ. (In agar diffusion tests the substance spreads into inoculated agar from a disc or well.)
The subject of assay [2] is Klebsiella pneumoniae. The experiment in a line: Antibacterial activity against Klebsiella pneumoniae ATCC 13883 at 140 ug/disk after 18 to 24 hr by disk diffusion method. As to conditions: read-out: DIZ.
In assay [3] the test system is Pseudomonas fluorescens. As to the kind of experiment: Antibacterial activity against Pseudomonas fluorescens ATCC 49838 at 140 ug/disk after 18 to 24 hr by disk diffusion method. The note with it: read-out: DIZ.
Assay [4] deals with Klebsiella aerogenes. The experiment in a line: Antibacterial activity against Enterobacter aerogenes ATCC 13048 at 140 ug/disk after 18 to 24 hr by disk diffusion method. As to conditions: read-out: DIZ.
The subject of assay [5] is Staphylococcus epidermidis. The experiment in a line: Antibacterial activity against Staphylococcus epidermidis ATCC 12228 at 140 ug/disk after 18 to 24 hr by disk diffusion method. The note with it: read-out: DIZ.
For assay [6], the system named is Bacillus subtilis. The experiment in a line: Antibacterial activity against Bacillus subtilis ATCC 6633 at 140 ug/disk after 18 to 24 hr by disk diffusion method. The note with it: read-out: DIZ.
Assay [7] deals with Enterococcus faecalis. The experiment in a line: Antibacterial activity against Enterococcus faecalis ATCC 29212 at 140 ug/disk after 18 to 24 hr by disk diffusion method. As to conditions: read-out: DIZ.
Assay [8] concerns Bacillus cereus. As to the kind of experiment: Antibacterial activity against Bacillus cereus ATCC 11778 at 140 ug/disk after 18 to 24 hr by disk diffusion method. The note with it: read-out: DIZ.
In assay [9] the test system is Staphylococcus aureus. The experiment in a line: Antibacterial activity against Staphylococcus aureus ATCC 25923 at 140 ug/disc after 18 to 24 hr by disk diffusion method. The note with it: read-out: DIZ.
The test system of assay [10] is Candida albicans. The experiment in a line: Antifungal activity against Candida albicans ATCC 90028 after 18 to 24 hr by broth microdilution method. In general terms: Dilution methods test growth across graded concentrations, often in twofold steps.
For assay [11], the system named is Pseudomonas aeruginosa. The experiment in a line: Antibacterial activity against Pseudomonas aeruginosa ATCC 27853 after 18 to 24 hr by broth microdilution method.
The test system of assay [12] is Escherichia coli. As to the kind of experiment: Antibacterial activity against Escherichia coli ATCC 25922 after 18 to 24 hr by broth microdilution method.
The test system of assay [13] is Klebsiella pneumoniae. The experiment in a line: Antibacterial activity against Klebsiella pneumoniae ATCC 13883 after 18 to 24 hr by broth microdilution method.
The test system of assay [14] is Pseudomonas fluorescens. The experiment in a line: Antibacterial activity against Pseudomonas fluorescens ATCC 49838 after 18 to 24 hr by broth microdilution method.
In assay [15] the test system is Klebsiella aerogenes. As to the kind of experiment: Antibacterial activity against Enterobacter aerogenes ATCC 13048 after 18 to 24 hr by broth microdilution method.
The test system of assay [16] is Staphylococcus epidermidis. As to the kind of experiment: Antibacterial activity against Staphylococcus epidermidis ATCC 12228 after 18 to 24 hr by broth microdilution method.
The subject of assay [17] is Enterococcus faecalis. As to the kind of experiment: Antibacterial activity against Enterococcus faecalis ATCC 29212 after 18 to 24 hr by broth microdilution method.
Assay [18] relates to Bacillus cereus. As to the kind of experiment: Antibacterial activity against Bacillus cereus ATCC 11778 after 18 to 24 hr by broth microdilution method.
For assay [19], the system named is Staphylococcus aureus. As to the kind of experiment: Antibacterial activity against Staphylococcus aureus ATCC 25923 after 18 to 24 hr by broth microdilution method.
The test system of assay [20] is Candida albicans. As to the kind of experiment: Antifungal activity against Candida albicans ATCC 90028 at 140 ug/disk after 18 to 24 hr by disk diffusion method. The note with it: read-out: DIZ.
The test system of assay [21] is Pseudomonas aeruginosa. The experiment in a line: Antibacterial activity against Pseudomonas aeruginosa ATCC 27853 at 140 ug/disk after 18 to 24 hr by disk diffusion method. As to conditions: read-out: DIZ.
In assay [22] the test system is Bacillus subtilis. As to the kind of experiment: Antibacterial activity against Bacillus subtilis ATCC 6633 after 18 to 24 hr by broth microdilution method.

Values after ≈ are worked out from the molar mass of the structure shown.

Regarding `NCC(O)CNS(=O)(=O)c1ccccc1` (configuration not stated), the zone of inhibition at 140 µg/disc (in the assay with Escherichia coli [1]; in the assay on Klebsiella pneumoniae [2]; with Pseudomonas fluorescens [3]; in the assay with Klebsiella aerogenes [4]; in assay [5]; in the assay on Bacillus subtilis [6]) was 0 mm throughout. The zone of inhibition at 140 µg/disc with Enterococcus faecalis [7], with Bacillus cereus [8], with Staphylococcus aureus [9], in the assay with Candida albicans [20] and with Pseudomonas aeruginosa [21] was 0 mm each time. For the same molecule, the MIC against Candida albicans [10] was 1000 µg/mL (≈ 4340 µM); against Pseudomonas aeruginosa [11], 1000 µg/mL (≈ 4340 µM); in the assay with Escherichia coli [12], 1000 µg/mL (≈ 4340 µM); against Klebsiella pneumoniae [13], more than 2000 µg/mL; in the assay with Pseudomonas fluorescens [14], 1000 µg/mL (≈ 4340 µM); against Klebsiella aerogenes [15], 1000 µg/mL (≈ 4340 µM). The minimum inhibitory concentration (MIC) (in assay [16]; with Enterococcus faecalis [17]; in the assay on Bacillus cereus [18]; with Staphylococcus aureus [19]; against Bacillus subtilis [22]) was more than 2000 µg/mL each time.
Consider `CN(/N=C/c1c(O)ccc2ccccc12)S(=O)(=O)c1ccccc1`, for which the zone of inhibition at 140 µg/disc came to 17 mm with Escherichia coli [1]; 23 mm in the assay on Klebsiella pneumoniae [2]; 26 mm in the assay on Pseudomonas fluorescens [3]; 18 mm in the assay with Klebsiella aerogenes [4]; 16 mm in assay [5]; 28 mm in the assay on Bacillus subtilis [6]. Further, the zone of inhibition at 140 µg/disc with Enterococcus faecalis [7] was 17 mm; in the assay with Bacillus cereus [8], 26 mm; with Staphylococcus aureus [9] it was 19 mm; with Candida albicans [20] it was 16 mm; in the assay with Pseudomonas aeruginosa [21] it was 25 mm. In addition, the MIC in the assay on Candida albicans [10] stood at 500 µg/mL (≈ 1470 µM); with Pseudomonas aeruginosa [11], 250 µg/mL (≈ 734 µM); in the assay on Escherichia coli [12], 500 µg/mL (≈ 1470 µM); in the assay on Klebsiella pneumoniae [13] it was 250 µg/mL (≈ 734 µM); against Pseudomonas fluorescens [14] it was 250 µg/mL (≈ 734 µM); against Klebsiella aerogenes [15], 500 µg/mL (≈ 1470 µM). Besides, the MIC in assay [16] was 500 µg/mL (≈ 1470 µM); in the assay on Enterococcus faecalis [17] it was 500 µg/mL (≈ 1470 µM); against Bacillus cereus [18] it was 250 µg/mL (≈ 734 µM); against Staphylococcus aureus [19] it was 500 µg/mL (≈ 1470 µM); in the assay with Bacillus subtilis [22], 250 µg/mL (≈ 734 µM).
Consider `O=S(=O)(NCCO)c1ccccc1`, for which the zone of inhibition at 140 µg/disc (with Escherichia coli [1]; with Klebsiella pneumoniae [2]; in the assay with Pseudomonas fluorescens [3]; in the assay on Klebsiella aerogenes [4]; in [5]; in the assay on Bacillus subtilis [6]) was 0 mm each time. Further, the zone of inhibition at 140 µg/disc in the assay with Enterococcus faecalis [7], in the assay with Bacillus cereus [8], in the assay with Staphylococcus aureus [9], in the assay on Candida albicans [20] and with Pseudomonas aeruginosa [21] was 0 mm in each case. The MIC with Candida albicans [10], against Pseudomonas aeruginosa [11], against Escherichia coli [12], with Klebsiella pneumoniae [13], against Pseudomonas fluorescens [14] and against Klebsiella aerogenes [15] was 1000 µg/mL (≈ 4970 µM) each time. For the same molecule, the minimum inhibitory concentration (MIC) in assay [16] was more than 2000 µg/mL; against Enterococcus faecalis [17], more than 2000 µg/mL; against Bacillus cereus [18], more than 2000 µg/mL; against Staphylococcus aureus [19] it was more than 2000 µg/mL; against Bacillus subtilis [22], 1000 µg/mL (≈ 4970 µM).
With `C/C(=N\N(C)S(=O)(=O)c1ccccc1)c1ccccc1O`, the zone of inhibition at 140 µg/disc in the assay on Escherichia coli [1] is 11 mm; in the assay with Klebsiella pneumoniae [2], 6 mm; in the assay with Pseudomonas fluorescens [3] it was 11 mm; in the assay on Klebsiella aerogenes [4], 5 mm; in [5], 12 mm; with Bacillus subtilis [6], 9 mm. Besides, the zone of inhibition at 140 µg/disc in the assay on Enterococcus faecalis [7] was 9 mm; with Bacillus cereus [8], 10 mm; with Staphylococcus aureus [9], 10 mm; in the assay with Candida albicans [20] it was 12 mm; in the assay with Pseudomonas aeruginosa [21] it was 5 mm. For the same molecule, the MIC against Candida albicans [10] came to 500 µg/mL (≈ 1640 µM); in the assay on Pseudomonas aeruginosa [11], 1000 µg/mL (≈ 3290 µM); in the assay with Escherichia coli [12], 1000 µg/mL (≈ 3290 µM); in the assay with Klebsiella pneumoniae [13], 1000 µg/mL (≈ 3290 µM); with Pseudomonas fluorescens [14], 1000 µg/mL (≈ 3290 µM); with Klebsiella aerogenes [15] it was 1000 µg/mL (≈ 3290 µM). The MIC stood at 500 µg/mL (≈ 1640 µM) in [16]; 1000 µg/mL (≈ 3290 µM) with Enterococcus faecalis [17]; 500 µg/mL (≈ 1640 µM) in the assay on Bacillus cereus [18]; 500 µg/mL (≈ 1640 µM) with Staphylococcus aureus [19]; 500 µg/mL (≈ 1640 µM) in the assay on Bacillus subtilis [22].
Regarding `CN(N)S(=O)(=O)c1ccccc1`, the zone of inhibition at 140 µg/disc in the assay on Escherichia coli [1] came out at 18 mm; in the assay with Klebsiella pneumoniae [2], 17 mm; in the assay on Pseudomonas fluorescens [3], 22 mm; with Klebsiella aerogenes [4], 16 mm; in [5] it was 14 mm; in the assay on Bacillus subtilis [6] it was 16 mm. Besides, the zone of inhibition at 140 µg/disc was 15 mm with Enterococcus faecalis [7]; 15 mm in the assay on Bacillus cereus [8]; 19 mm with Staphylococcus aureus [9]; 0 mm with Candida albicans [20]; 19 mm in the assay on Pseudomonas aeruginosa [21]. For the same molecule, the MIC against Candida albicans [10] was more than 2000 µg/mL; in the assay on Pseudomonas aeruginosa [11], 62.5 µg/mL (≈ 336 µM); in the assay with Escherichia coli [12] it was 125 µg/mL (≈ 671 µM); against Klebsiella pneumoniae [13], 125 µg/mL (≈ 671 µM); in the assay on Pseudomonas fluorescens [14], 62.5 µg/mL (≈ 336 µM); with Klebsiella aerogenes [15], 125 µg/mL (≈ 671 µM). Moreover, the minimal inhibitory concentration (MIC) amounted to 125 µg/mL (≈ 671 µM) in [16]; 250 µg/mL (≈ 1340 µM) in the assay with Enterococcus faecalis [17]; 125 µg/mL (≈ 671 µM) in the assay with Bacillus cereus [18]; 125 µg/mL (≈ 671 µM) against Staphylococcus aureus [19]; 125 µg/mL (≈ 671 µM) with Bacillus subtilis [22].
For `CN(/N=C/c1cccs1)S(=O)(=O)c1ccccc1`, the zone of inhibition at 140 µg/disc in the assay with Escherichia coli [1] was determined as 17 mm; in the assay with Klebsiella pneumoniae [2], 21 mm; in the assay with Pseudomonas fluorescens [3], 25 mm; in the assay on Klebsiella aerogenes [4] it was 17 mm; in assay [5], 15 mm; with Bacillus subtilis [6], 24 mm. The zone of inhibition at 140 µg/disc in the assay on Enterococcus faecalis [7] was 0 mm; with Bacillus cereus [8], 25 mm; in the assay on Staphylococcus aureus [9], 12 mm; in the assay on Candida albicans [20], 0 mm; with Pseudomonas aeruginosa [21] it was 24 mm. Besides, the MIC against Candida albicans [10] is 1000 µg/mL (≈ 3570 µM); in the assay with Pseudomonas aeruginosa [11] it was 125 µg/mL (≈ 446 µM); in the assay on Escherichia coli [12] it was 125 µg/mL (≈ 446 µM); against Klebsiella pneumoniae [13], 125 µg/mL (≈ 446 µM); in the assay on Pseudomonas fluorescens [14], 125 µg/mL (≈ 446 µM); in the assay with Klebsiella aerogenes [15] it was 250 µg/mL (≈ 892 µM). Besides, the minimal inhibitory concentration (MIC) amounted to 125 µg/mL (≈ 446 µM) in assay [16]; 1000 µg/mL (≈ 3570 µM) against Enterococcus faecalis [17]; 250 µg/mL (≈ 892 µM) in the assay on Bacillus cereus [18]; 250 µg/mL (≈ 892 µM) against Staphylococcus aureus [19]; 125 µg/mL (≈ 446 µM) against Bacillus subtilis [22].
